This is an account of results in patent publication US11208421B2, “2-carboxypenam compound or salt thereof, pharmaceutical composition containing novel 2-carboxypenam compound or salt thereof, and applications thereof” (priority 2017, dated 2021).

What all share (format): cell-based
Assay [1] relates to Pseudomonas aeruginosa AmpC derepression mutant strain S-3028. The assay is described as follows: Antibacterial activity evaluation test (MIC), broth microdilution, AmpC derepression mutant strain S-3028. As to conditions: for MIC: Pseudomonas aeruginosa, read-out: MIC Pseudomonas aeruginosa strain S-3028; for MIC Pseudomonas aeruginosa strain S-3028: AmpC derepression mutant, cation-adjusted Mueller Hinton medium, 35° C., 16 to 20 hours. The protocol: (§1) The minimum inhibitory concentration (MIC) was measured according to the Clinical and Laboratory Standards Institute (CLSI) standard method by using the following broth microdilution method.
(§2) As bacteria, a Pseudomonas aeruginosa strain ATCC 27853, a Pseudomonas aeruginosa AmpC derepression mutant strain S-3028, and a Pseudomonas aeruginosa IMP-1-producing strain S-2838 were used.
(§3) The Pseudomonas aeruginosa AmpC-derepression mutant strain S-3028 or the Pseudomonas aeruginosa IMP-1-producing strain S-2838 was cultured on a Mueller Hinton agar medium overnight, thereby preparing test bacterial cells. The obtained test bacterial cells were scraped off, suspended to yield 0.5 McFarland equivalence, and diluted 10-fold to obtain an inoculum. A cation-adjusted Mueller Hinton medium containing a test compound was inoculated with 0.0005 mL of the inoculum, and the cells were cultured at 35° C. for 16 to 20 hours. The minimum drug concentration at which the growth of bacteria was not visually observed was defined as MIC.

For assay [2], the system named is Pseudomonas aeruginosa IMP-1-producing strain S-2838. The assay is described as follows: Antibacterial activity evaluation test (MIC), broth microdilution, IMP-1-producing strain S-2838. As to conditions: for MIC: Pseudomonas aeruginosa, read-out: MIC Pseudomonas aeruginosa strain S-2838; for MIC Pseudomonas aeruginosa strain S-2838: IMP-1-producing strain, cation-adjusted Mueller Hinton medium, 35° C., 16 to 20 hours. The procedure:
as §1, §2, §3

In assay [3] the test system is Pseudomonas aeruginosa strain ATCC 27853. The assay is described as follows: Antibacterial activity evaluation test (MIC), broth microdilution, strain ATCC 27853. Particulars: for MIC: Pseudomonas aeruginosa, ATCC27853, read-out: MIC Pseudomonas aeruginosa strain ATCC 27853; for MIC Pseudomonas aeruginosa strain ATCC 27853: cation-adjusted Mueller-Hinton medium supplemented with 20 M of apotransferrin, 35° C., 16 to 20 hours. The protocol: as §1, §2, §3
The MIC of the Pseudomonas aeruginosa ATCC strain 27853 was measured in the same manner as described above by using a cation-adjusted Mueller-Hinton medium supplemented with […] of apotransferrin as a final concentration.

Each structure is given as a SMILES string. Converted amounts (≈) assume the structure as drawn. Some results are limits rather than exact numbers.

As for `COC[C@H](CS[C@]1(C(=O)O)CN2C(=O)[C@@H](NC(=O)/C(=N\OC(C)(C)C(=O)O)c3csc(N)n3)[C@H]2S1)NC(=O)/C(=N\NC(N)=O)c1ccc(O)c(O)c1Cl` [Example 17, (3R,5R,6R)-6-((Z)-2-(2-aminothiazol-4-yl)-2-(((2-carboxypropane-2-yl)oxy)imino)acetamide)-3-(((R)-2-(2-(2-carbamoylhydrazono)-2-(2-chloro-3,4-dihydroxyphenyl)acetamide)-3-methoxypropyl)thio)-7-oxo-4-thia-1-azabicyclo[3.2.0]heptane-3-carboxylic acid], the minimum inhibitory concentration (MIC) in assay [1] is 8 µg/mL (≈ 9.78 µM); in assay [2], 8 µg/mL (≈ 9.78 µM); in assay [3], at most 0.0625 µg/mL.

With `CC(C)(O/N=C(\C(=O)N[C@@H]1C(=O)N2C[C@](SCCNC(=O)c3ccc(O)c(O)c3Cl)(C(=O)O)SC12)c1csc(N)n1)C(=O)O` (stereo partly drawn) [Example 18, (3R,5R,6R)-6-((Z)-2-(2-aminothiazol-4-yl)-2-(((2-carboxypropan-2-yl)oxy)imino)acetamide)-3-((2-(2-chloro-3,4-dihydroxybenzamide)ethyl)thio)-7-oxo-4-thia-1-azabicyclo[3.2.0]heptane-3-carboxylic acid], the figures for the MIC in assay [1], in assay [2] and in assay [3] were 2 µg/mL (≈ 2.9 µM), 4 µg/mL (≈ 5.8 µM) and 0.125 µg/mL (≈ 0.181 µM), respectively.

For `COC[C@H](CS[C@]1(C(=O)O)CN2C(=O)[C@@H](NC(=O)/C(=N\OC(C)(C)C(=O)O)c3csc(N)n3)C2S1)NC(=O)c1ccc(O)c(O)c1Cl` (stereo partly drawn) [Example 19, (3R,5R,6R)-6-((Z)-2-(2-aminothiazol-4-yl)-2-(((2-carboxypropan-2-yl)oxy)imino)acetamide)-3-(((R)-2-(2-chloro-3,4-dihydroxybenzamide)-3-methoxypropyl)thio)-7-oxo-4-thia-1-azabicyclo[3.2.0]heptane-3-carboxylic acid], the minimum inhibitory concentration (MIC) in assay [1] was determined as 1 µg/mL (≈ 1.36 µM); in assay [2] it was 1 µg/mL (≈ 1.36 µM); in assay [3], 0.125 µg/mL (≈ 0.17 µM).

As for `CC(C)(O/N=C(\C(=O)N[C@@H]1C(=O)N2C[C@](SC[C@H]3COCCN3C(=O)c3ccc(O)c(O)c3Cl)(C(=O)O)SC12)c1csc(N)n1)C(=O)O` (stereo partly drawn) [Example 20, (3R,5R,6R)-6-((Z)-2-(2-aminothiazol-4-yl)-2-(((2-carboxypropan-2-yl)oxy)imino)acetamide)-3-((((R)-4-(2-chloro-3,4-dihydroxybenzoyl)morpholin-3-yl)methyl)thio)-7-oxo-4-thia-1-azabicyclo[3.2.0]heptane-3-carboxylic acid], the MIC in assay [1] was 4 µg/mL (≈ 5.37 µM); in assay [2], 4 µg/mL (≈ 5.37 µM); in assay [3], 0.5 µg/mL (≈ 0.671 µM).

In the case of `CN(CCS[C@]1(C(=O)O)CN2C(=O)[C@@H](NC(=O)/C(=N\OC(C)(C)C(=O)O)c3csc(N)n3)[C@H]2S1)NC(=O)c1ccc(O)c(O)c1Cl` [Example 22, (3R,5R,6R)-6-((Z)-2-(2-aminothiazol-4-yl)-2-(((2-carboxypropan-2-yl)oxy)imino)acetamide)-3-((2-(2-(2-chloro-3,4-dihydroxybenzoyl)-1-methylhydrazinyl)ethyl)thio)-7-oxo-4-thia-1-azabicyclo[3.2.0]heptane-3-carboxylic acid], the “MIC Pseudomonas aeruginosa strain S-3028” value in assay [1] was found to be 8 µg/mL (≈ 11.1 µM). Moreover, the “MIC Pseudomonas aeruginosa strain S-2838” value in assay [2] turned out to be 2 µg/mL (≈ 2.78 µM). Also, the “MIC Pseudomonas aeruginosa strain ATCC 27853” value in assay [3] was 0.125 µg/mL (≈ 0.174 µM).

`CC(C)(O/N=C(\C(=O)N[C@@H]1C(=O)N2C[C@](SCCNC(=O)C(=O)c3cc(O)c(O)cc3Cl)(C(=O)O)S[C@H]12)c1csc(N)n1)C(=O)O` [Example 23, (3R,5R,6R)-6-((Z)-2-(2-aminothiazol-4-yl)-2-(((2-carboxypropan-2-yl)oxy)imino)acetamide)-3-((2-(2-(2-chloro-4,5-dihydroxyphenyl)-2-oxoacetamide)ethyl)thio)-7-oxo-4-thia-1-azabicyclo[3.2.0]heptane-3-carboxylic acid]: the “MIC Pseudomonas aeruginosa strain S-3028” value in assay [1] stood at 2 µg/mL (≈ 2.79 µM). The “MIC Pseudomonas aeruginosa strain S-2838” value in assay [2] turned out to be 4 µg/mL (≈ 5.58 µM). The “MIC Pseudomonas aeruginosa strain ATCC 27853” value in assay [3] amounted to 1 µg/mL (≈ 1.39 µM).

For the compound `CC(C)(O/N=C(\C(=O)N[C@@H]1C(=O)N2C[C@](SCCNC(=O)/C(=N\NC(N)=O)c3cc(O)c(O)cc3Cl)(C(=O)O)S[C@H]12)c1csc(N)n1)C(=O)O` [Example 24, (3R,5R,6R)-6-((Z)-2-(2-aminothiazol-4-yl)-2-(((2-carboxypropan-2-yl)oxy)imino)acetamide)-3-((2-((Z)-2-(2-carbamoylhydrazinylidene)-2-(2-chloro-4,5-dihydroxyphenyl)acetamide)ethyl)thio)-7-oxo-4-thia-1-azabicyclo[3.2.0]heptane-3-carboxylic acid], the results for the minimal inhibitory concentration (MIC) in assay [1], in assay [2] and in assay [3] were 8 µg/mL (≈ 10.3 µM), 4 µg/mL (≈ 5.17 µM) and 0.5 µg/mL (≈ 0.646 µM), respectively.

Regarding `CN(CCS[C@]1(C(=O)O)CN2C(=O)[C@@H](NC(=O)/C(=N\OC(C)(C)C(=O)O)c3csc(N)n3)[C@H]2S1)C(=O)c1ccc(O)c(O)c1Cl` [Example 25, (3R,5R,6R)-6-((Z)-2-(2-aminothiazol-4-yl)-2-(((2-carboxypropan-2-yl)oxy)imino)acetamide)-3-((2-(2-chloro-3,4-dihydroxy-N-methylbenzamide)ethyl)thio)-7-oxo-4-thia-1-azabicyclo[3.2.0]heptane-3-carboxylic acid], the MIC stood at 2 µg/mL (≈ 2.84 µM) in assay [1], 1 µg/mL (≈ 1.42 µM) in assay [2] and 1 µg/mL (≈ 1.42 µM) in assay [3].

`CC(C)(O/N=C(\C(=O)N[C@@H]1C(=O)N2C[C@](SCCNC(=O)/C(=N\N)c3ccc(O)c(O)c3Cl)(C(=O)O)S[C@H]12)c1csc(N)n1)C(=O)O` [Example 26, (3R,5R,6R)-6-((Z)-2-(2-aminothiazol-4-yl)-2-(((2-carboxypropan-2-yl)oxy)imino)acetamide)-3-((2-((Z)-2-(2-chloro-3,4-dihydroxyphenyl)-2-hydrazinylideneacetamide)ethyl)thio)-7-oxo-4-thia-1-azabicyclo[3.2.0]heptane-3-carboxylic acid]: the “MIC Pseudomonas aeruginosa strain S-3028” value in assay [1] was determined as 8 µg/mL (≈ 10.9 µM). In addition, in assay [2], the “MIC Pseudomonas aeruginosa strain S-2838” value worked out at 1 µg/mL (≈ 1.37 µM). In assay [3], the “MIC Pseudomonas aeruginosa strain ATCC 27853” value was 0.5 µg/mL (≈ 0.684 µM).

For `CC(C)(O/N=C(\C(=O)N[C@@H]1C(=O)N2C[C@](SC[C@@H]3COCCN3C(=O)c3ccc(O)c(O)c3Cl)(C(=O)O)S[C@H]12)c1csc(N)n1)C(=O)O` [Example 27, (3R,5R,6R)-6-((Z)-2-(2-aminothiazol-4-yl)-2-(((2-carboxypropan-2-yl)oxy)imino)acetamide)-3-((((S)-4-(2-chloro-3,4-dihydroxybenzoyl)morpholin-3-yl)methyl)thio)-7-oxo-4-thia-1-azabicyclo[3.2.0]heptane-3-carboxylic acid], in assay [1], the “MIC Pseudomonas aeruginosa strain S-3028” value was found to be 0.5 µg/mL (≈ 0.671 µM). Moreover, in assay [2], the “MIC Pseudomonas aeruginosa strain S-2838” value amounted to 0.5 µg/mL (≈ 0.671 µM). Moreover, the “MIC Pseudomonas aeruginosa strain ATCC 27853” value in assay [3] was found to be 1 µg/mL (≈ 1.34 µM).

Regarding `CC(C)(O/N=C(\C(=O)N[C@@H]1C(=O)N2C[C@](SCCNNC(=O)c3ccc(O)c(O)c3Cl)(C(=O)O)S[C@H]12)c1csc(N)n1)C(=O)O` [Example 28, (3R,5R,6R)-6-((Z)-2-(2-aminothiazol-4-yl)-2-(((2-carboxypropan-2-yl)oxy)imino)acetamide)-3-((2-(2-(2-chloro-3,4-dihydroxybenzoyl)hydradienyl)ethyl)thio)-7-oxo-4-thia-1-azabicyclo[3.2.0]heptane-3-carboxylic acid], the “MIC Pseudomonas aeruginosa strain S-3028” value in assay [1] stood at 1 µg/mL (≈ 1.42 µM). Also, the “MIC Pseudomonas aeruginosa strain S-2838” value in assay [2] is 1 µg/mL (≈ 1.42 µM). The “MIC Pseudomonas aeruginosa strain ATCC 27853” value in assay [3] came to 1 µg/mL (≈ 1.42 µM).
